Series [1] has as its system Carrageenin-Induced Foot Edema. Nature of the series: Inhibition for carrageenin-induced foot edema in rats. The note with it: Rattus norvegicus, po, 1 hour before carrageenin, paw volume 3 hours after, probit method, read-out: ED30 (dosage for 30% inhibition of edema). It is filed as in vivo, Wister strain male rats. On the procedure:
10 Wister strain male rats weighing about 120 g were used in each group. Each compound of this invention was suspended in a 5% aqueous arabic gum solution and administered orally to the animals. One hour after the administration, 0.1 ml of a 1% solution of carrageenin in physiological saline as a phlogistic agent was subcutaneously injected into the right hind paw of the rats which had been shaven previously. The volume of the right hind paw was measured before the administration of the phlogistic agent and 3 hours after the administration. The intensity of edema expressed as percent increase in the foot volume was calculated from the […] (1) and the percent inhibition of edema was calculated from the equation (2). [formula]
The effective dosage of each compound for inhibiting edema was expressed as ED30 (mg/kg) by calculating the dosage for 30% inhibition from the percent inhibition of edema according to the probit method.
(Carrageenan injected into the paw causes an acute inflammation.)

The nature of series [2]: Acute oral toxicity in mice. The note with it: mouse, in vivo, mortality 7 days after administration. The method, then: 10 ddY Strain male mice weighing about 20 g were used in each group. Each compound of this invention was suspended in a 5% aqueous gum arabic solution and administered orally. The mortality rate (%) was determined from the number of dead animals 7 days after the administration, and the dosage corresponding to 50% mortality was calculated and expressed as LD50 (mg/kg).

Series [3] can be described thus: Properties of respective derivatives (solubility). In kind it is physicochemical.
Another series concerns rats. Nature of the series: Diuretic effect in rats. The note with it: Rattus norvegicus, po, 5 h, urine volume up to 5 hours, % of control; for response vs control in vivo at 50 mg/kg: dosage 50 mg/kg; for response vs control in vivo at 10 mg/kg: dosage 10 mg/kg; for response vs control in vivo at 20 mg/kg: dosage 20 mg/kg. In kind it is in vivo, Wister strain male rats. The method, then: Wister strain male rats weighing about 200 g were starved overnight and each compound of this invention suspended in 25 ml/kg of physiological saline were administered orally to the 5 animals in each group, and the diuretic effect up to 5 hours after the administration was measured. The diuretic effect is expressed as the average urine volume (%) of the treated group divided by that of the control group.

A word on the LD50: it is the dose expected to kill half of the subjects tested. A low value points to a more toxic substance. As to `CC(C)C(=O)N1CCC(=NO)c2cc(Br)ccc21` [XVII, 6-Bromo-4-oximino-1-isobutyryl-1,2,3,4-tetrahydroquinoline], the ED30 in series [1] was determined as 102 mg/kg. For the same compound, the LD50 at 168 h in series [2] was > 5000 mg/kg. Also, in series [3], the “Solubility in ethanol and dichloromethane” value is “soluble”; the “Solubility in water and hexane” value is reported as “Sparingly soluble”. The response vs control in vivo at 50 mg/kg in the series with rats was 173%.

`O=C(C=Cc1ccccc1)N1CCC(=NO)c2cc(Br)ccc21` [XVIII, 6-Bromo-4-oximino-1-cinnamoyl-1,2,3,4-tetrahydroquinoline]: in series [1], the ED30 was 133 mg/kg. The LD50 at 168 h in series [2] is > 5000 mg/kg. In addition, in series [3], the “Solubility in ethanol and dichloromethane” value is recorded as “soluble”; the “Solubility in water and hexane” value was “Sparingly soluble”. Further, in the series with rats, the response vs control in vivo at 50 mg/kg came to 203%.

In the case of `CNC(=O)N1CCC(=NO)c2cc(Br)ccc21` [XX, 6-Bromo-4-oximino-1-methylcarbamoyl-1,2,3,4-tetrahydroquinoline], the ED30 in series [1] is 95 mg/kg. Besides, in series [2], the LD50 at 168 h is > 5000 mg/kg. Besides, in series [3], the “Solubility in ethanol and dichloromethane” value is listed as “soluble”; the “Solubility in water and hexane” value was “Sparingly soluble”. In the series with rats, the response vs control in vivo at 50 mg/kg was 197%.

`CN(C)C(=O)N1CCC(=NO)c2cc(F)ccc21` [XXI, 6-Fluoro-4-oximino-1-dimethylcarbamoyl-1,2,3,4-tetrahydroquinoline]: the ED30 in series [1] is 141 mg/kg. Further, the LD50 at 168 h in series [2] is > 5000 mg/kg. In series [3], the “Solubility in ethanol and dichloromethane” value was “soluble”; the “Solubility in water and hexane” value is reported as “Sparingly soluble”. In addition, in the series with rats, the response vs control in vivo at 10 mg/kg was 128% and the response vs control in vivo at 20 mg/kg stood at 209%.

As for `CN(C)C(=O)N1CCC(=NO)c2cc(Cl)ccc21` [XXII, 6-Chloro-4-oximino-1-dimethylcarbamoyl-1,2,3,4-tetrahydroquinoline], in series [1], the ED30 is 34 mg/kg. Also, the LD50 at 168 h in series [2] was > 5000 mg/kg. Further, in series [3], the “Solubility in ethanol and dichloromethane” value was “soluble”; the “Solubility in water and hexane” value is reported as “Sparingly soluble”. Further, in the series on rats, the response vs control in vivo at 10 mg/kg turned out to be 198% and the response vs control in vivo at 20 mg/kg is 263%.

Turning to `CN(C)C(=O)N1CCC(=NO)c2cc(Br)ccc21` [XXIII, 6-Bromo-4-oximino-1-dimethylcarbamoyl-1,2,3,4-tetrahydroquinoline], in series [1], the ED30 is 51 mg/kg. In addition, the LD50 at 168 h in series [2] was > 5000 mg/kg. Moreover, in series [3], the “Solubility in ethanol and dichloromethane” value is recorded as “soluble”; the “Solubility in water and hexane” value is reported as “Sparingly soluble”. For the same compound, the response vs control in vivo at 50 mg/kg in the series with rats worked out at 200%.
